Assay results: patent US20060025477A1, “Analogs of isovaleramide, a pharmaceutical composition including the same, and a method of treating central nervous system conditions or diseases” (priority 2004, published 2006)
“And” between values parts separate entries of the source, which are not always exact repeats. Equal entries are not always repeated. Where two headings read alike, the source gives them in different places.

Legend:
[1] = test system: male Swiss-Webster mice; test: Maximal electroshock (MES)-induced tonic extension seizure test; format: in vivo, mouse; details: for # P/# T (protected/tested): 300 mg/kg p.o.
Procedure: In the MES test, a substance is administered orally (p.o.) and is tested for efficacy against maximal electroshock (MES)-induced tonic extension seizures. Adult male Swiss-Webster mice (each 20-25 g of body weight) were used. The mice were housed in Association for the Assessment and Accreditation of Laboratory Animal Care-approved facilities under a constant 12-hour light/dark cycle with a constant temperature of 21° C.-23° C. and a relative humidity of 30% to 50%. All animals were permitted free access to standard laboratory chow (Prolab RMH 3000; PMI Nutrition International, LLC, Brentwood, Mo.) and water, except when removed from their home cages for testing. All mice were handled in a manner consistent with the recommendations in the National Research Council Publication Guide for the Care and Use of Laboratory Animals.
(§1) Test compounds (Compound S, Compound W, the S-enantiomer of Compound AA, the R-enantiomer of Compound AA, Compound HH, Compound JJ, and Compound MM) were dissolved in saline containing 0.5% methylcellulose. To determine time to peak effect, 300 mg/kg of each of the test compounds was suspended in 0.5% methylcellulose in saline and administered orally to a group of 20 mice. For comparative purposes, isovaleramide was also tested. At various times (0.25, 0.5, 1, 2, and 4 hours) after p.o. administration, individual mice were placed on the rotarod and tested for their ability to maintain balance on a rotating (6 rpm) 2.5-cm diameter knurled rod for 60 seconds. Mice that fell three times in this 60-second trial were considered impaired.
Following rotarod testing, the mice were tested in the maximal electroshock (MES)-induced tonic extension seizures test. For this test, a drop of electrolyte solution (0.5% butacaine sulfate in 0.9% saline) was placed on the eyes of each mouse prior to placement of corneal electrodes. The mice were restrained by gripping the loose skin on their dorsal surface and saline-coated corneal electrodes were held lightly against the two corneas. Each mouse received an electrical stimulation (50 mAmp, 50 Hz current, 0.2 sec) delivered through a silver-coated corneal electrode using an electroshock machine as originally described by Woodbury and Davenport (Arch Int. Pharmacodyn. Ther., 92:97-104, 1952). […] A tonic seizure was defined as a hindlimb extension in excess of 90 degrees from the plane of the body. Results were treated in a quantal manner. […] ED50's (the effective dose at which 50% of the mice were protected) were determined for Compounds W and HH by administering various doses (30, 100, 300 mg/kg) at the previously determined time to peak effect, as shown in Table 11.

[2] = test system: male Swiss-Webster mice; test: Rotarod impairment test before MES testing; format: in vivo, mouse; details: 300 mg/kg p.o.
Procedure: as §1

[3] = test system: Frings audiogenic seizure-susceptible mouse; test: Frings audiogenic seizure assay (protection against sound-induced tonic hindlimb extension); format: in vivo; details: for Seizure Score ± S.E.M.: score 1-5; for ED50: Mus musculus, po
Procedure: The anticonvulsant activity of compound S ((S)-(+)-2,2-dimethylcyclopropane-carboxamide) was tested using the Frings audiogenic seizure-susceptible mouse. […] Compound S, which is a solution at 300 mg/kg and a suspension at 600 mg/kg, was administered to the mice at the doses indicated in Tables 1-3. Compound S was obtained from Sigma-Aldrich Chemical Co. (Aldrich catalog number: 43,463-9).
At the time of testing, individual mice were placed into a round Plexiglas chamber and exposed to a sound stimulus of 110 decibels, 11 kHz, for 20 seconds. Mice not displaying tonic hindlimb extensions upon exposure to the sound stimulus were considered protected. In addition, the seizure score for each mouse was recorded as: (1) running for less than 10 seconds; (2) running for greater than 10 seconds; (3) clonic activity of limbs and/or vibrissae; (4) forelimb extension/hindlimb flexion; and (5) hindlimb extension. The average seizure score was calculated for each group of mice used in the dose-response study.
The anticonvulsant activity of compounds I, W, X, and AA was tested using the Frings audiogenic seizure-susceptible mouse model as described in Example 23. […] The therapeutic index relates to separation between therapeutic efficacy and CNS toxicity as measured by motor impairment in the rotarod performance test.

[4] = Rotarod test of motor impairment (toxicity) in the Frings study; format: in vivo; details: Frings, mouse, in vivo, po, rotarod, Table 4
Procedure: (§2) At each dose, the mice were also tested on a rotarod for testing of motor impairment (toxicity). Testing for motor impairment on the rotarod involved placing a mouse for a three-minute trial period on a one-inch diameter rod rotating at six revolutions per minute. If the mouse fell off of the rotating rod three times within the three-minute time period, the dose was considered a toxic response.
(§3) The therapeutic index relates to separation between therapeutic efficacy and CNS toxicity as measured by motor impairment in the rotarod performance test.

[5] = test system: Frings mice; test: as above; format: in vivo; details: for separation between efficacy and CNS toxicity: as measured by rotarod impairment; for Therapeutic Index: Frings, mouse, in vivo, po
Procedure: as §2, §3

[6] = humans, cited from earlier work
[7] = Table 5, read-out: ED50 Oral Administration

## C[C@H](C(N)=O)C(C)(C)C [Compound MM]
[1]; 0.25 hours
  # P/# T (protected/tested): 0/4
[1]; 0.5 hours
  # P/# T (protected/tested): 1/4
[1]; 1 hour
  # P/# T (protected/tested): 2/4
[1]; 2 hours
  # P/# T (protected/tested): 3/4
[1]; 4 hours
  # P/# T (protected/tested): 3/4
[2]; 0.25 hours
  # I/# T (impaired/tested): 2/4
[2]; 0.5 hours
  # I/# T (impaired/tested): 3/4
[2]; 1 hour
  # I/# T (impaired/tested): 4/4
[2]; 2 hours
  # I/# T (impaired/tested): 3/4
[2]; 4 hours
  # I/# T (impaired/tested): 3/4

## CC1(C)C[C@@H]1C(N)=O [Compound S, (S)-(+)-2,2-dimethylcyclopropanecarboxamide]
[3]; 30 mg/kg p.o., Table 1
  #Protected/#Tested 30 min: no mice were protected and 0/4
  #Protected/#Tested 120 min: no mice were protected and 0/4
[3]; 50 mg/kg p.o., Table 3
  #Prot./#Tested at 15 min: none of the mice were protected and 0/8
[3]; 50 mg/kg p.o.
  Seizure Score ± S.E.M.: 5 ± 0
[3]; 60 mg/kg p.o., Table 3
  #Prot./#Tested at 15 min: 5/8
[3]; 60 mg/kg p.o., 15 minutes, Table 3
  mice protected: 62.5%
[3]; 60 mg/kg p.o.
  Seizure Score ± S.E.M.: 2.1 ± 0.9
[3]; 75 mg/kg p.o., Table 3
  #Prot./#Tested at 15 min: 7/8
[3]; 75 mg/kg p.o., 15 minutes, Table 2
  mice protected: 75%
[3]; 75 mg/kg p.o., 15 minutes, Table 3
  mice protected: 87.5%
[3]; 75 mg/kg p.o.
  Seizure Score ± S.E.M.: 1.1 ± 0.6
[3]; 75 mg/kg p.o., ¼ hr, Table 2
  # Prot./# Tested: ¾
[3]; 75 mg/kg p.o., ½ hr, Table 2
  # Prot./# Tested: no mice were protected and 0/4
[3]; 100 mg/kg p.o., Table 3
  #Prot./#Tested at 15 min: 6/8
[3]; 100 mg/kg p.o., 15 minutes, Table 2
  mice protected: 75%
[3]; 100 mg/kg p.o., 15 minutes, Table 3
  mice protected: 75%
[3]; 100 mg/kg p.o., Table 1
  #Protected/#Tested 30 min: 3/4
  #Protected/#Tested 120 min: 1/4
[3]; 100 mg/kg p.o., 30 minutes, Table 1
  mice protected: 75%
[3]; 100 mg/kg p.o., 30 minutes, Table 2
  mice protected: 75%
[3]; 100 mg/kg p.o., 1 hr, Table 2
  # Prot./# Tested: no mice were protected and 0/4
[3]; 100 mg/kg p.o., 2 hrs, Table 2
  # Prot./# Tested: 1 mouse was protected and 1/4
[3]; 100 mg/kg p.o., 120 minutes, Table 1
  mice protected: 25%
[3]; 100 mg/kg p.o.
  Seizure Score ± S.E.M.: 1.6 ± 0.8
[3]; 100 mg/kg p.o., ¼ hr, Table 2
  # Prot./# Tested: ¾
[3]; 100 mg/kg p.o., ½ hr, Table 2
  # Prot./# Tested: 3/4
[3]; 200 mg/kg p.o., Table 3
  #Prot./#Tested at 15 min: all the mice were protected and 8/8
[3]; 200 mg/kg p.o.
  Seizure Score ± S.E.M.: 0.1 ± 0.1
[3]; 300 mg/kg p.o., Table 1
  #Protected/#Tested 30 min: all of the tested mice were protected and 4/4
  #Protected/#Tested 120 min: all of the tested mice were protected and 4/4
[3]; 50-200 mg/kg p.o., Table 3
  average seizure score with dose: generally decreased with increasing doses
[3]; 0.25 h, p.o., tested at 15 min, 95% confidence interval 50.16-78.92, read-out: ED50 for protection against tonic extension
  ED50: 64.9 mg/kg
[3]; Table 4, read-out: ED50
  ED50: 64.8 mg/kg
[3]; after oral administration
  time at which anticonvulsant activity was observed: as early as 15 minutes and up to 2 hours
[3]; p.o.
  anticonvulsant activity (summary): demonstrated activity as an anticonvulsant
[4]
  TD50 at 15 min: > 600 mg/kg
[5]; 30 mg/kg p.o., rotarod
  #Toxic/#Tested 30 min: 0/4
  #Toxic/#Tested 120 min: 0/4
[5]; 100 mg/kg p.o., rotarod
  #Toxic/#Tested 30 min: 0/4
  #Toxic/#Tested 120 min: 0/4
[5]; 300 mg/kg p.o., rotarod
  #Toxic/#Tested 30 min: 0/4
  #Toxic/#Tested 120 min: 0/4
[5]; 600 mg/kg p.o., 15 min, rotarod
  #Toxic/#Tested at 15 min: 1/8
[5]; 600 mg/kg p.o., 15 minutes, rotarod
  mice with a toxic response: 12.5%
[5]; p.o.
  separation between efficacy and CNS toxicity: 10 fold
  separation between activity and toxicity (summary): good separation between activity and toxicity
[5]; doses of Table 1 (30, 100, 300 mg/kg p.o.), 30 or 120 minutes
  toxic responses on the rotarod: none of the doses produced toxic responses
[5]; p.o., rotarod
  toxicity (summary): low toxicity
[1]; 0.25 hours
  # P/# T (protected/tested): 0/8
[1]; 0.5 hours
  # P/# T (protected/tested): 0/8
[1]; 1 hour
  # P/# T (protected/tested): 1/8
[1]; 2 hours
  # P/# T (protected/tested): 0/4
[1]; 4 hours
  # P/# T (protected/tested): 0/4
[2]; 0.25 hours
  # I/# T (impaired/tested): 0/8
[2]; 0.5 hours
  # I/# T (impaired/tested): 1/8
[2]; 1 hour
  # I/# T (impaired/tested): 1/8
[2]; 2 hours
  # I/# T (impaired/tested): 0/4
[2]; 4 hours
  # I/# T (impaired/tested): 0/4

## C[C@H]1CC[C@H](C(N)=O)CC1 [Compound W, trans-4-methylcyclohexanecarboxamide]
[3]; [7]
  ED50: 164 mg/kg
[5]
  Therapeutic Index: >4-fold
[1]; p.o., at time to peak effect, MES
  ED50 Oral Administration: Inactive at 300 mg/kg

## CC1CCC(CC(N)=O)CC1 (stereo not drawn) [Compound X, 2-(4-methylcyclohexyl)acetamide]
[3]; [7]
  ED50: 86.4 mg/kg
[5]
  Therapeutic Index: >6-fold

## CC(C)CC(N)=O [Isovaleramide, isovaleramide]
[3]; Table 4, read-out: ED50
  ED50: 206 mg/kg
[5]; p.o.
  separation between efficacy and CNS toxicity: 5 fold
[1]; Mus musculus, po, at time to peak effect, MES, read-out: ED50 Oral Administration
  ED50: 913 mg/kg
[6]; oral, doses ranging from 100 mg to 1600 mg
  half-life: about 2.5 hours
[6]; orally administered
  absorption: readily absorbed from the gastrointestinal tract
